# Experimental data taken from patent US20250345329A1, “HETEROARYL DERIVATIVE COMPOUND AND USES THEREOF” (VORONOI, INC., priority 2022, published 2025).
# pIC50: −log10 of the molar value.
# Key:
# [1] = system: Ba/F3 expressing EGFR Del19/T790M/C797S mutations; test: Inhibitory activity on proliferation of Ba/F3 cell overexpressing EGFR C797S (Cell Titer-Glo); format: cell-based; details: Mus musculus, BaF3; 72 hours treatment, cell growth rate vs control; read-out: Ba/F3 (EGFR DTC) GI50
# Procedure: <Experimental Example 2> Evaluation of Inhibitory Activity on Proliferation of Ba/F3 Cell Overexpressing EGFR C797S
# The following experiments were performed to evaluate the inhibitory activity of the compounds according to the present invention on the proliferation of Ba/F3 expressing EGFR Del19/T790M/C797S mutations.
# Ba/F3 cells were cultured in RPMI-1640 medium supplemented with 10% fetal bovine serum (FBS), and 3000 cells were seeded into each well of a white clear bottom 96 well plate (Corning) 24 hours prior to compound treatment. The compounds were diluted in dimethyl sulfoxide (3-fold dilution, total of 12 concentrations) and injected at 1 μl each so that the final concentration was […] to 5 μM. After 72 hours post treatment with compounds, living cells were reacted in a 37° C., CO2 incubator for […], followed by 10 minutes at room temperature using Cell Titer-Glo luminescent cell-viability reagent (Promega), and the luminescence intensity thereof was measured using a reader (SynergyNeo2, Biotek). The result values were calculated as a cell growth rate (%) compared to the control group. GI50 values were calculated using the GraphPad Prism version 8.4.3 (GraphPad software Inc., San Diego) program.
# [2] = target: T1, human EGFR (d746-750/T790M/C797S) (Homo sapiens, UniProt P00533, C797S/DEL746-750/T790M); test: EGFR C797S enzyme inhibition activity (ADP-Glo kinase assay); format: biochemical; details: purified enzyme 3 ng, ATP 5 μM, 25° C., 1 hour, luminescence; read-out: EGFR DTC Enzyme IC50
# T1 construct: human EGFR (d746-750/T790M/C797S) (668-end, SignalChem); purchased SignalChem
# Procedure: <Experimental Example 1> Evaluation of EGFR C797S Enzyme Inhibition Activity
# The compounds according to the present invention were reacted together with purified human EGFR (d746-750/T790M/C797S) (668-end, SignalChem) enzyme and a specific substrate and evaluated for enzyme inhibitory activity as described below. The reaction buffer consisted of 40 mM Tris-HCl pH 7.4, 20 mM MgCl2, 0.5 mg/ml BSA, and 50 μM DTT, and all reactions of the test substances were performed in reaction buffers. The compounds were serially diluted in 12 steps from a 10 mM DMSO stock, and the enzyme activity was measured at the final compound concentrations of 10, 3, 1, 0.3, 0.1, 0.03, 0.01, 0.003, 0.001, 0.0003, 0.0001, and 0 μM. In the assay, human EGFR (d746-750/T790M/C797S) (3 ng) enzyme was reacted with purified ATP (5 μM) and enzyme substrate (0.2 μg) at 25° C. for 1 hour, and the enzyme activity was determined using the in vitro ADP-Glo™ kinase assay (Promega). The enzyme activity inhibition was measured via luminescence by reacting the enzyme activity reaction solution, ADP-Glo reaction solution, and enzyme activity detection solution in a 2:2:1 ratio. Based on the luminescence of the enzyme activity of the solvent control group that was not treated with the compound, the degree of the enzyme activity inhibition depending on the treatment concentration of each compound was calculated, wherein the concentration of each compound that inhibited the enzyme activity by 50% was determined as the IC50 (nM) value, which was obtained using GraphPad Prism 8.4.3 (GraphPad software Inc., San Diego).
# T1 sequence (P00533 with tags, fused parts or gaps DEL746-750/T790M/C797S): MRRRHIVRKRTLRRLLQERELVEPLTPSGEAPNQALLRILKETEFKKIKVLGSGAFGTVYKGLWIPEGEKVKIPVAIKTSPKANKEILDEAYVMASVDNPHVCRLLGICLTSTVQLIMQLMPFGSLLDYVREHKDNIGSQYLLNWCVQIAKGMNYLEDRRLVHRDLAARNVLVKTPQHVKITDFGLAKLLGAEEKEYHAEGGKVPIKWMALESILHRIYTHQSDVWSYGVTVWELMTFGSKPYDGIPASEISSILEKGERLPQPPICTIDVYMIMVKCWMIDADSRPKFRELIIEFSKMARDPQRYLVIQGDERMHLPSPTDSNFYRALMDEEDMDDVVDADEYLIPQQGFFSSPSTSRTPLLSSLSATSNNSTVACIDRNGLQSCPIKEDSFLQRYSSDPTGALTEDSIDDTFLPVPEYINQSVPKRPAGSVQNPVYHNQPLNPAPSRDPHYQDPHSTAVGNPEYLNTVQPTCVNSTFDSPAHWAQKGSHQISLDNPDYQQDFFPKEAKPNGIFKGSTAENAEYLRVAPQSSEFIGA
GI50 [1],pIC50 [2],Compound
< 0.5 µM,6.30 to 7.30,"CC(C)Nc1cc(Nc2ccnc(-c3cnn(S(=O)(=O)C4CC4)c3)n2)ncc1C(=O)NC1CC(F)(F)C1 [Example 99, 6-((2-(1-(cyclopropylsulfonyl)-1H-pyrazol-4-yL)pyrimidin-4-yl)amino)-N-(3,3-difluorocyclobutyl)-4-(isopropylamino)nico-tinamide]"
0.5 to 5 µM,> 7.30,"CC(C)Nc1cc(Nc2ccnc(-c3cnn(S(=O)(=O)C4CC4)c3)n2)ncc1C(=O)NC(CN(C)C)c1ccccc1 (stereo not shown) [Example 70, 6-((2-(1-(cyclopropylsulfonyl)-1H-pyrazol-4-yl)pyrimidin-4-yl)amino)-N-(2-(dimethylamino)-1-phenylethyl)-4-(isopropylamino)nico-tinamide]"
< 0.5 µM,> 7.30,"C[C@H]1CCOc2c(cnn2C)-c2cc(ccn2)Nc2ncc(C(=O)NCCC(F)(F)F)c(n2)N1 [Example 115, (S)-1^1,6-dimethyl-N-(3,3,3-trifluoropropyl)-1^1H-9-oxa-3,5-diaza-4(2,4)-pyrimidina-2(2,4)-pyridina-1(4,5)-pyrazolacyclo-nonaphane-4^5-carboxamide]"
0.5 to 5 µM,6.30 to 7.30,"CO[C@H]1CCN(c2nccc(Nc3cc(NC4CCCC4)c(C(=O)N4CC(CS(C)(=O)=O)C4)cn3)n2)C[C@H]1F (relative stereo) [Example 13, (4-(cyclopentylamino)-6-((2-(cis-3-fluoro-4-methoxypiperidin-1-yl)pyrimidin-4-yl)amino)pyridin-3-yl)(3-((methylsulfonyl)meth-yl)azetidin-1-yl)methanone]"
0.5 to 5 µM,6.30 to 7.30,"CC(C)Nc1cc(Nc2ccnc(-c3cnn(S(=O)(=O)C4CC4)c3)n2)ncc1C(=O)NCCCS(C)(=O)=O [Example 64, 6-((2-(1-(cyclopropylsulfonyl)-1H-pyrazol-4-yl)pyrimidin-4-yl)amino)-4-(isopropylamino)-N-(3-(methyl-sulfonyl)propyl) nicotinamide]"
0.5 to 5 µM,> 7.30,"CC(C)Nc1cc(Nc2ccnc(-c3cnn(S(=O)(=O)C4CC4)c3)n2)ncc1C(=O)NC1CCS(=O)(=O)C1 (stereo not shown) [Example 36, 6-((2-(1-(cyclopropylsulfonyl)-1H-pyrazol-4-yl)pyrimidin-4-yl)amino)-N-(1,1-dioxydotetrahydrothi-ophen-3-yl)-4-(isopropylamino)nico-tinamide]"
0.5 to 5 µM,> 7.30,"CC(C)Nc1cc(Nc2ccnc(-c3cnn(S(=O)(=O)C4CC4)c3)n2)ncc1C(=O)N1CC[C@H](CN2CCN(C)CC2)C1 [Example 65, (R)-(6-((2-(1-(cyclopropylsulfonyl)-1H-pyrazol-4-yl)pyrimidin-4-yl)amino)-4-(isopropylamino)pyri-din-3-)(3-((4-methylpiperazin-1-yl)methyl)pyrrolidin-1-yl)methanone]"
< 0.5 µM,> 7.30,"CC(C)Nc1cc(Nc2ccnc(-c3cnn(S(=O)(=O)C4CC4)c3)n2)ncc1C(=O)NCCC(F)(F)F [Example 82, 6-((2-(1-(cyclopropylsulfonyl)-1H-pyrazol-4-yl)pyrimidin-4-yl)amino)-4-(isopropylamino)-N-(3,3,3-trifluoropropyl)nico-tinamide]"
< 0.5 µM,> 7.30,"CC1CCCOc2c(cnn2C)-c2nccc(n2)Nc2cc(c(C(=O)NCCCC(F)(F)F)cn2)N1 (stereo not shown) [Example 116, 1^1,6-dimethyl-N-(4,4,4-trifluorobutyl)-1^1H-10-oxa-3,5-diaza-2(2,4)-pyrimidina-4(2,4)-pyridina-1(4,5)-pyrazolacyclo-decaphane-4^5-carboxamide]"
0.5 to 5 µM,6.30 to 7.30,"CC(C)Nc1cc(Nc2ccnc(-c3cnn(S(=O)(=O)C4CC4)c3)n2)ncc1C(=O)N[C@@H](C(C)C)C(F)(F)F [Example 79, (S)-6-((2-(1-(cyclopropylsulfonyl)-1H-pyrazol-4-yl)pyrimidin-4-yl)amino)-4-(isopropylamino)-N-(1,1,1-trifluoro-3-methylbutan-2-yl)nicotinamide]"
0.5 to 5 µM,> 7.30,"CC(C)Nc1cc(Nc2ccnc(-c3cnn(S(=O)(=O)C4CC4)c3)n2)ncc1C(=O)NC[C@@H]1CCCN1 [Example 76, (S)-6-((2-(1-(cyclopropylsulfonyl)-1H-pyrazol-4-yl)pyrimidin-4-yl)amino)-4-(isopropylamino)-N-(pyrrolidin-2-ylmethyl)nicotinamide]"
0.5 to 5 µM,> 7.30,"CC(C)Nc1cc(Nc2ccnc(-c3cnn(S(=O)(=O)C4CC4)c3)n2)ncc1C(=O)NC1CCN(S(C)(=O)=O)C1 (stereo not shown) [Example 49, 6-((2-(1-(cyclopropylsulfonyl)-1H-pyrazol-4-yl)pyrimidin-4-yl)amino)-4-(isopropylamino)-N-(1-(methylsulfonyl)pyrro-lidin-3-yl)nicotinamide]"
0.5 to 5 µM,> 7.30,"CC(C)Nc1cc(Nc2ccnc(-c3cnn(S(=O)(=O)C4CC4)c3)n2)ncc1C(=O)NCCCO [Example 57, 6-((2-(1-(cyclopropylsulfonyl)-1H-pyrazol-4-yl)pyrimidin-4-yl)amino)-N-(3-hydroxypropyl)-4-(isopropylamino)nico-tinamide]"
0.5 to 5 µM,6.30 to 7.30,"CC(C)Nc1cc(Nc2ccnc(-c3cnn(S(=O)(=O)C4CC4)c3)n2)ncc1C(=O)NCCCN(C)C(=O)OC(C)(C)C [Example 58, tert-butyl (3-(6-((2-(1-(cyclopropylsulfonyl)-1H-pyrazol-4-yl)pyrimidin-4-yl)amino)-4-(isopropylamino)nico-tinamido)propyl)(meth-yl)carbamate]"
0.5 to 5 µM,6.30 to 7.30,"CC(C)Nc1cc(Nc2ccnc(-c3cnn(S(=O)(=O)C4CC4)c3)n2)ncc1C(=O)NCc1ccc(C#N)cc1 [Example 55, N-(4-cyanobenzyl)-6-((2-(1-(cyclopropylsulfonyl)-1H-pyrazol-4-yl)pyrimidin-4-yl)amino)-4-(isopropylamino)nico-tinamide]"
0.5 to 5 µM,> 7.30,"CC(C)Nc1cc(Nc2ccnc(N3CCOCC3)n2)ncc1C(=O)N1CC(CS(C)(=O)=O)C1 [Example 10, (4-(isopropylamino)-6-((2-morpholinopyrimidin-4-yl)amino)pyridin-3-yl)(3-((methylsulfonyl)meth-yl)azetidin-1-yl)methanone]"
0.5 to 5 µM,6.30 to 7.30,"CC(C)Nc1cc(Nc2ccnc(-c3cnn(S(=O)(=O)C4CC4)c3)n2)ncc1C(=O)NCc1ccc(F)cc1 [Example 61, 6-((2-(1-(cyclopropylsulfonyl)-1H-pyrazol-4-yl)pyrimidin-4-yl)amino)-N-(4-fluorobenzyl)-4-(isopropylamino)nico-tinamide]"
0.5 to 5 µM,> 7.30,"CC(C)Nc1cc(Nc2ccnc(-c3cnn(S(=O)(=O)C4CC4)c3)n2)ncc1C(=O)Nc1cccc(N2CCN(C)CC2)c1 [Example 39, 6-((2-(1-(cyclopropylsulfonyl)-1H-pyrazol-4-yl)pyrimidin-4-yl)amino)-4-(isopropylamino)-N-(3-(4-methylpiperazin-1-yl)phenyl)nicotinamide]"
0.5 to 5 µM,6.30 to 7.30,"CC(C)Nc1cc(Nc2ccnc(-c3cnn(S(=O)(=O)C4CC4)c3)n2)ncc1C(=O)Nc1cc(CN2CCN(C)CC2)cc(C(F)(F)F)c1 [Example 25, 6-((2-(1-(cyclopropylsulfonyl)-1H-pyrazol-4-yl)pyrimidin-4-yl)amino)-4-(isopropylamino)-N-(3-((4-methylpiperazin-1-yl)methyl)-5-(trifluoromethyl)phe-nyl)nicotinamide]"
0.5 to 5 µM,> 7.30,"CC(C)Nc1cc(Nc2ccnc(-c3cnn(S(=O)(=O)C4CC4)c3)n2)ncc1C(=O)NCC(F)(F)F [Example 78, 6-((2-(1-(cyclopropylsulfonyl)-1H-pyrazol-4-yl)pyrimidin-4-yl)amino)-4-(isopropylamino)-N-(2,2,2-trifluoroethyl)nicotin-amide]"
